Measured values reported in PMC12741935 (Alzheimer's & Dementia, 2025).

Key:
[1] = In vivo PK in CD-1 mice, plasma and brain by LC-MS/MS; conditions: for Mean concentration in brain: ± SD, n=3; for AUC(0-inf): AUCInf
Experimental: Initial in vivo PK studies to confirm oral bioavailability and brain exposure were conducted at Pharmaron (Beijing, China) in non‐fasted male CD‐1 mice (6–8 weeks of age; sourced from Vital River). […] The dose volume was 10 mL/kg.
Next, we evaluated brain and plasma PK of 10 mg/kg (1 hour pre, IP, n = 3). Experiments then were conducted to confirm and extend initial PK data and evaluate brain and plasma levels at doses of 1, 10, and 100 mg/kg after oral administration at 1, 3, and 8 hours post dose (n = 3 per dose per timepoint).
Serial blood was collected via the dorsal metatarsal vein into ethylenediaminetetraacetic acid‐K2 coated tubes and centrifuged at 4°C x 4000 g for 5 minutes to obtain plasma that was aliquoted and stored at −80°C until analysis. For terminal studies, blood was collected via cardiac puncture under isoflurane anesthesia. Whole brain was homogenized at a ratio of 1:3 with PBS (W:V, 1:3).
For sample analysis liquid chromatography tandem mass spectrometry (LC‐MS/MS) was conducted using an AB Sciex Triple Quad 5500 LC/MS/MS instrument. Briefly, the desired serial concentrations of working solutions were achieved by diluting stock solution of analyte with 50% acetonitrile in water solution. Ten µL of working solutions (0.5, 1, 2, 5, 10, 50, 100, 500, and 1000 ng/mL) were added to 10 µL of the blank CD1 mouse plasma/brain homogenate to achieve calibration standards of 0.5 to 1000 ng/mL (0.5, 1, 2, 5, 10, 50, 100, 500, and 1000 ng/mL) in a total volume of 20 µL. Five quality control (QC) samples at 1 ng/mL, 2 ng/mL, 5 ng/mL, 50 ng/mL, and 800 ng/mL for plasma/brain homogenate were prepared independently of those used for the calibration curves. These QC samples were prepared on the day of analysis in the same way as calibration standards. Twenty µL standards, 20 µL QC samples, and 20 µL unknown samples (10 µL plasma/brain homogenate with 10 µL blank solution) were added to 200 µL of acetonitrile containing internal standard (IS) mixture for precipitating protein, respectively. The samples were vortexed for 30 seconds followed by centrifugation at 4°C x 2600 g for 15 minutes. The supernatant was diluted at a ratio of 1:2 with H2O (V/V, 1:2), 5 µL of diluted supernatant was injected into the LC‐MS/MS system for quantitative analysis. The lower limit of quantification (LLOQ) was 0.5 ng/mL for plasma and 1 ng/mL for brain. PK parameters were estimated by non‐compartmental model analysis using WinNonlin 8.3.

[2] = Body weight during chronic twice daily oral dosing of aged 5xFAD mice; type: in vivo; conditions: 8- to 9-month-old 5xFAD, twice daily oral administration, within first 31 days; seen with both NVS-PAK1-1 and vehicle
Experimental: Serial blood was collected from n = 3 per treatment group at 0.5, 1, 2, and 4 hours post dose; with terminal blood and brain collected at 4 hours post dose. A staggered cohort of n = 3 per treatment group were assigned to serial blood collections at 0.5, 1, 2, and 8 hours post dose with terminal blood and brain collected at 4 and 24 hours post dose. Informed by exposure data from the initial PK/PD study, a subsequent chronic PK/PD study was designed to evaluate twice daily treatment of 100 mg/kg (PO) in female and male 5xFAD mice compared to age‐ and sex‐matched vehicle‐treated 5xFAD and vehicle‐treated WT littermate controls (Table S2 in supporting information). Terminal blood and brain was collected at 4 hours after the final dose. […] All in vivo target engagement and PK/PD studies were conducted under blinded conditions for age, genotype, and treatment, and the blind was maintained until after analyses were conducted.
Drug concentrations were prepared immediately before dosing each day. The dose volume was delivered at 10 mL/kg based on each subject's daily weight collected just prior to the morning dose and administered via PO. For the chronic PD study, twice daily dosing (BID) was conducted between 7:00 and 9:00 am each morning and 3:00 to 5:00 pm each evening with the same day's formulation stored at 4°C between dosing intervals.

[3] = test system: kinome; broad panel of proteases, receptors, and bromodomains; conditions: cited from earlier work
[4] = male, CD-1, mouse, brain, oral, 10 mg/kg
[5] = male, CD-1, mouse, brain, oral, 100 mg/kg
[6] = male, CD-1, mouse, brain, po, 10 mg/kg, 10 mg/kg PO
[7] = male, CD-1, mouse, brain, po, 100 mg/kg, 100 mg/kg PO
[8] = male, CD-1, mouse, plasma, ip, 10 mg/kg, 10 mg/kg IP, sampling 0.5, 1, 3, 5 h
[9] = male, CD-1, mouse, plasma, po, 1 mg/kg, 1 mg/kg PO
[10] = male, CD-1, mouse, plasma, po, 10 mg/kg, 10 mg/kg PO, sampling 0.5, 1, 3, 5 h
[11] = male, CD-1, mouse, plasma, po, 10 mg/kg, 10 mg/kg PO, sampling 1, 3, 8 h
[12] = male, CD-1, mouse, plasma, po, 100 mg/kg, 100 mg/kg PO
[13] = plasma, 10 mg/kg IP, sampling 0.5, 1, 3, 5 h
[14] = plasma, 10 mg/kg PO, sampling 0.5, 1, 3, 5 h
[15] = plasma, 10 mg/kg PO, sampling 1, 3, 8 h

SMILES: CC(C)NC(=O)N1CC[C@H](NC2=Nc3cc(F)ccc3N(CC(F)F)c3ccc(Cl)cc32)C1 [NVS‐PAK1‐1, (S)‐3‐([2‐chloro‐5‐(2,2‐difluoroethyl)‐8‐fluoro‐5H‐dibenzo[b,e][1,4]diazepin‐11‐yl]amino)‐N‐isopropylpyrrolidine‐1‐carboxamide]
- Mean concentration in brain ([1]; 1 mg/kg PO, 1 h post dose): BLOQ
- Mean concentration in brain ([1]; 1 mg/kg PO, 3 h post dose): BLOQ
- Mean concentration in brain ([1]; 1 mg/kg PO, 8 h post dose): BLOQ
- concentration in brain ([1]; 1 mg/kg PO, at 1, 3 and 8 hours post dose): < 1 ng/mL
- Mean concentration in brain ([1]; 10 mg/kg PO, 8 h post dose): BLOQ
- Mean concentration in brain ([1]; 100 mg/kg PO, 8 h post dose): detectable
- AUC_%Extrap_obs ([1]; brain, 10 mg/kg PO): 15.3%
- AUClast/D ([1]; brain, 10 mg/kg PO): 5.74 h·ng/mL per mg/kg
- AUC_%Extrap_obs ([1]; brain, 100 mg/kg PO): 1.34%
- AUClast/D ([1]; brain, 100 mg/kg PO): 13.8 h·ng/mL per mg/kg
- concentration at 1 h ([1]; male, CD-1, mouse, brain, intraperitoneal, 10 mg/kg): 112 ± 14 ng/g
- concentration at 1 h [1, 4]: 33.2 ± 13 ng/g
- concentration at 3 h [1, 4]: 7.62 ± 1.16 ng/g
- concentration at 1 h [1, 5]: 759 ± 379 ng/g
- concentration at 3 h [1, 5]: 61.6 ± 3.5 ng/g
- concentration at 8 h [1, 5]: 14.3 ± 5.4 ng/g
- AUC(0-inf) [1, 6]: 67.8 ng·h/mL
- AUC(0-t) ([1]; male, CD-1, mouse, brain, po, 10 mg/kg, AUClast, 10 mg/kg PO): 57.4 ng·h/mL
- Cmax [1, 6]: 33.2 ng/mL
- MRT inf ([1]; male, CD-1, mouse, brain, po, 10 mg/kg, MRTInf_obs, 10 mg/kg PO): 1.74 h
- half-life ([1]; male, CD-1, mouse, brain, po, 10 mg/kg, T1/2, brain, 10 mg/kg PO): 0.942 h
- Tmax [1, 6]: 1 h
- AUC(0-inf) [1, 7]: 1400 ng·h/mL
- AUC(0-t) ([1]; male, CD-1, mouse, brain, po, 100 mg/kg, AUClast, 100 mg/kg PO): 1380 ng·h/mL
- Cmax [1, 7]: 759 ng/mL
- half-life ([1]; male, CD-1, mouse, brain, po, 100 mg/kg, T1/2, brain, 100 mg/kg PO): 1.23 h
- Tmax [1, 7]: 1 h
- Kp at 1 h ([1]; male, CD-1, mouse, brain/plasma, ip, 10 mg/kg): 0.25
- Kp ([1]; male, CD-1, mouse, brain/plasma, po, 10 mg/kg): 0.21
- Kp ([1]; male, CD-1, mouse, brain/plasma, po, 100 mg/kg): 0.302
- AUC(0-t) ([1]; male, CD-1, mouse, in vivo, po, 1 mg/kg): 27.2 ng·h/mL
- MRT inf ([1]; male, CD-1, mouse, in vivo, po, 100 mg/kg): 1.56 h
- concentration at 1 h ([1]; male, CD-1, mouse, plasma, intraperitoneal, 10 mg/kg): 448 ± 65 ng/mL
- AUC(0-inf) [1, 8]: 1170 ng·h/mL
- AUC(0-t) ([1]; male, CD-1, mouse, plasma, ip, 10 mg/kg, AUClast, 10 mg/kg IP, sampling 0.5, 1, 3, 5 h): 1150 ng·h/mL
- Cmax [1, 8]: 878 ng/mL
- MRT inf ([1]; male, CD-1, mouse, plasma, ip, 10 mg/kg, MRTInf_obs, 10 mg/kg IP, sampling 0.5, 1, 3, 5 h): 1.1 h
- half-life ([1]; male, CD-1, mouse, plasma, ip, 10 mg/kg, T1/2, plasma, 10 mg/kg IP, sampling 0.5, 1, 3, 5 h): 0.814 h
- Tmax [1, 8]: 0.5 h
- AUC(0-inf) [1, 9]: 31.6 ng·h/mL
- Cmax [1, 9]: 8.1 ng/mL
- MRT inf ([1]; male, CD-1, mouse, plasma, po, 1 mg/kg, MRTInf_obs, 1 mg/kg PO): 3.92 h
- half-life ([1]; male, CD-1, mouse, plasma, po, 1 mg/kg, T1/2, plasma, 1 mg/kg PO): 2.62 h
- Tmax [1, 9]: 1 h
- AUC(0-inf) [1, 10]: 252 ng·h/mL
- AUC(0-inf) [1, 11]: 280 ng·h/mL
- AUC(0-t) ([1]; male, CD-1, mouse, plasma, po, 10 mg/kg, AUClast, 10 mg/kg PO, sampling 0.5, 1, 3, 5 h): 223 ng·h/mL
- AUC(0-t) ([1]; male, CD-1, mouse, plasma, po, 10 mg/kg, AUClast, 10 mg/kg PO, sampling 1, 3, 8 h): 274 ng·h/mL
- Cmax [1, 10]: 130 ng/mL
- Cmax [1, 11]: 112 ng/mL
- MRT inf ([1]; male, CD-1, mouse, plasma, po, 10 mg/kg, MRTInf_obs, 10 mg/kg PO, sampling 0.5, 1, 3, 5 h): 2.19 h
- MRT inf ([1]; male, CD-1, mouse, plasma, po, 10 mg/kg, MRTInf_obs, 10 mg/kg PO, sampling 1, 3, 8 h): 2.1 h
- half-life ([1]; male, CD-1, mouse, plasma, po, 10 mg/kg, T1/2, plasma, 10 mg/kg PO, sampling 0.5, 1, 3, 5 h): 1.56 h
- half-life ([1]; male, CD-1, mouse, plasma, po, 10 mg/kg, T1/2, plasma, 10 mg/kg PO, sampling 1, 3, 8 h): 1.4 h
- Tmax [1, 10]: 0.5 h
- Tmax [1, 11]: 1 h
- AUC(0-inf) [1, 12]: 4720 ng·h/mL
- AUC(0-t) ([1]; male, CD-1, mouse, plasma, po, 100 mg/kg, AUClast, 100 mg/kg PO): 4570 ng·h/mL
- Cmax [1, 12]: 2330 ng/mL
- MRT inf ([1]; male, CD-1, mouse, plasma, po, 100 mg/kg, MRTInf_obs, 100 mg/kg PO): 1.91 h
- half-life ([1]; male, CD-1, mouse, plasma, po, 100 mg/kg, T1/2, plasma, 100 mg/kg PO): 1.5 h
- Tmax [1, 12]: 1 h
- AUC_%Extrap_obs ([1]; plasma, 1 mg/kg PO): 14.0%
- AUClast/D ([1]; plasma, 1 mg/kg PO): 27.2 h·ng/mL per mg/kg
- AUC_%Extrap_obs [1, 13]: 1.62%
- AUClast/D [1, 13]: 115 h·ng/mL per mg/kg
- AUC_%Extrap_obs [1, 14]: 11.3%
- AUClast/D [1, 14]: 22.3 h·ng/mL per mg/kg
- AUC_%Extrap_obs [1, 15]: 2.29%
- AUClast/D [1, 15]: 27.4 h·ng/mL per mg/kg
- AUC_%Extrap_obs ([1]; plasma, 100 mg/kg PO): 3.08%
- AUClast/D ([1]; plasma, 100 mg/kg PO): 45.7 h·ng/mL per mg/kg
- weight loss [2]: ≈ 20%
- cross-reactivity with a broad panel of proteases, receptors, and bromodomains [3]: no significant cross‐reactivity
